# From PubChem BioAssay AID1259407 (Chemical Carcinogenesis Research Information System (CCRIS), 2018)
# Calls of active or inactive are those of the source. No rule for the calls is given here.
# Test system: CCRIS mutagenicity, Ames/micronucleus/aberration tests
# Assay: CCRIS mutagenicity studies
compound,measurement,setting,value
CCN(CC)N=O,mutagenic call,"Test System: AMES SALMONELLA TYPHIMURIUM, Strain/Indicator: TA2410, Metabolic Activation: NONE, Method: HOST-MEDIATED",active; positive
same,mutagenic call,"Test System: AMES SALMONELLA TYPHIMURIUM, Strain/Indicator: TA2678, Metabolic Activation: NONE, Method: HOST-MEDIATED",active; positive
same,mutagenic call,"Test System: AMES SALMONELLA TYPHIMURIUM, Strain/Indicator: YG1024, Metabolic Activation: NONE, Method: PREINCUBATION",inactive; negative
same,mutagenic call,"Test System: AMES SALMONELLA TYPHIMURIUM, Strain/Indicator: YG1024, Metabolic Activation: RAT LIVER S-9, AROCLOR, Method: PREINCUBATION",active; positive
same,mutagenic call,"Test System: AMES SALMONELLA TYPHIMURIUM, Strain/Indicator: YG7100, Metabolic Activation: S-9, Method: PREINCUBATION",inactive; negative
same,mutagenic call,"Test System: AMES SALMONELLA TYPHIMURIUM, Strain/Indicator: YG7104, Metabolic Activation: S-9, Method: PREINCUBATION",active; positive
same,mutagenic call,"Test System: AMES SALMONELLA TYPHIMURIUM, Strain/Indicator: YG7104ER, Metabolic Activation: NONE, Method: STANDARD PLATE",active; positive
same,mutagenic call,"Test System: AMES SALMONELLA TYPHIMURIUM, Strain/Indicator: YG7108-2A6-OR, Metabolic Activation: NONE, Method: PREINCUBATION",active; positive
same,mutagenic call,"Test System: AMES SALMONELLA TYPHIMURIUM, Strain/Indicator: YG7108-2A6, Metabolic Activation: NONE, Method: PREINCUBATION",active; positive
same,mutagenic call,"Test System: AMES SALMONELLA TYPHIMURIUM, Strain/Indicator: YG7108-PCW, Metabolic Activation: NONE, Method: PREINCUBATION",inactive; negative
same,mutagenic call,"Test System: AMES SALMONELLA TYPHIMURIUM, Strain/Indicator: YG7108, Metabolic Activation: RAT LIVER S-9, PHENOBARBITAL AND 5,6-BENZOFLAVONE, Method: PREINCUBATION",active; positive
same,mutagenic call,"Test System: AMES SALMONELLA TYPHIMURIUM, Strain/Indicator: YG7108, Metabolic Activation: S-9, Method: PREINCUBATION",active; positive
same,mutagenic call,"Test System: AMES SALMONELLA TYPHIMURIUM, Strain/Indicator: YG7108ER, Metabolic Activation: NONE, Method: STANDARD PLATE",active; positive
same,mutagenic call,"Test System: AMES SALMONELLA TYPHIMURIUM, Strain/Indicator: YG7112, Metabolic Activation: S-9, Method: PREINCUBATION",active; positive
same,mutagenic call,"Test System: AMES SALMONELLA TYPHIMURIUM, Strain/Indicator: YG7113, Metabolic Activation: S-9, Method: PREINCUBATION",active; positive
same,mutagenic call,"Test System: AMES SALMONELLA TYPHIMURIUM, Strain/Indicator: YG7119, Metabolic Activation: S-9, Method: PREINCUBATION",inactive; negative
same,mutagenic call,"Test System: Ames Salmonella typhimurium, Strain/Indicator: TA98, Metabolic Activation: None, Method: Preincubation",active; positive
same,mutagenic call,"Test System: Ames Salmonella typhimurium, Strain/Indicator: TA98, Metabolic Activation: Rat, Liver, S-9, Aroclor 1254 (4%), Method: Preincubation",active; positive
same,mutagenic call,"Test System: Ames Salmonella typhimurium, Strain/Indicator: TA98DNP6 (Acetyltransferase deficient), Metabolic Activation: None, Method: Preincubation",inactive; negative
same,mutagenic call,"Test System: Ames Salmonella typhimurium, Strain/Indicator: TA98DNP6 (Acetyltransferase deficient), Metabolic Activation: Rat, Liver, S-9, Aroclor 1254 (4%), Method: Preincubation",inactive; negative
same,mutagenic call,"Test System: Ames Salmonella typhimurium, Strain/Indicator: TA98NR, Metabolic Activation: None, Method: Preincubation",inactive; negative
same,mutagenic call,"Test System: Ames Salmonella typhimurium, Strain/Indicator: TA98NR, Metabolic Activation: Rat, Liver, S-9, Aroclor 1254 (4%), Method: Preincubation",inactive; negative
same,mutagenic call,"Test System: Ames Salmonella typhimurium, Strain/Indicator: YG1021, Metabolic Activation: None, Method: Preincubation",inactive; negative
same,mutagenic call,"Test System: Ames Salmonella typhimurium, Strain/Indicator: YG1021, Metabolic Activation: Rat, Liver, S-9, Aroclor 1254 (4%), Method: Preincubation",inactive; negative
same,mutagenic call,"Test System: Ames Salmonella typhimurium, Strain/Indicator: YG1024 (Acetyltransferase overproducing), Metabolic Activation: None, Method: Preincubation",inactive; negative
same,mutagenic call,"Test System: Ames Salmonella typhimurium, Strain/Indicator: YG1024 (Acetyltransferase overproducing), Metabolic Activation: Rat, Liver, S-9, Aroclor 1254 (4%), Method: Preincubation",active; positive
same,mutagenic call,"Test System: Ames Salmonella typhimurium, Strain/Indicator: YG1041 (Acetyltransferase and nitroreductase overproducing), Metabolic Activation: None, Method: Preincubation",inactive; negative
same,mutagenic call,"Test System: Ames Salmonella typhimurium, Strain/Indicator: YG1041 (Acetyltransferase and nitroreductase overproducing), Metabolic Activation: Rat, Liver, S-9, Aroclor 1254 (4%), Method: Preincubation",inactive; negative
same,mutagenic call,"Test System: Ames Salmonella typhimurium, Strain/Indicator: YG7108pin3ERb5, Metabolic Activation: None, Method: Standard plate",active; positive
same,mutagenic call,"Test System: CHINESE HAMSTER V-79, Strain/Indicator: V-79 (HPRT)/6-THIOGUANINE, Metabolic Activation: RAT, HEPATOCYTES",active; positive
same,mutagenic call,"Test System: CHINESE HAMSTER V-79, Strain/Indicator: V-79 (HPRT)/6-THIOGUANINE, Metabolic Activation: RAT, HEPATOMA, H4IIE CELLS",inactive; negative
same,mutagenic call,"Test System: CHINESE HAMSTER V-79, Strain/Indicator: V-79 (HPRT)/6-THIOGUANINE, Metabolic Activation: RAT, LIVER, S-9, AROCLOR 1254",active; positive
same,mutagenic call,"Test System: CHINESE HAMSTER V-79, Strain/Indicator: V-79/8-AZAGUANINE, Metabolic Activation: RAT, LIVER, S-15, PHENOBARBITAL, Method: STANDARD PLATE",active; positive
same,mutagenic call,"Test System: CHINESE HAMSTER V-79, Strain/Indicator: V-79/OUABAIN, Metabolic Activation: CELL-MEDIATED, Method: STANDARD PLATE",active; positive
same,mutagenic call,"Test System: CHINESE HAMSTER V-79, Strain/Indicator: V-79/OUABAIN, Metabolic Activation: HAMSTER, HEPATOCYTES, Method: CELL-MEDIATED",active; positive
same,mutagenic call,"Test System: E. COLI, Strain/Indicator: WP2 (HCR-), Metabolic Activation: RAT, LIVER, MICROSOMES, PHENOBARBITAL",active; positive
same,mutagenic call,"Test System: E. COLI, Strain/Indicator: WP2 UVRA, Metabolic Activation: HAMSTER, LIVER, S-9, AROCLOR 1254, Method: PREINCUBATION",active; positive
same,mutagenic call,"Test System: E. COLI, Strain/Indicator: WP2 UVRA, Metabolic Activation: HAMSTER, LIVER, S-9, AROCLOR 1254, Method: STANDARD PLATE",inactive; negative
same,mutagenic call,"Test System: E. COLI, Strain/Indicator: WP2 UVRA, Metabolic Activation: HAMSTER, LIVER, S-9, Method: PREINCUBATION",active; positive
same,mutagenic call,"Test System: E. COLI, Strain/Indicator: WP2 UVRA, Metabolic Activation: HAMSTER, LIVER, S-9, Method: STANDARD PLATE",inactive; negative
same,mutagenic call,"Test System: E. COLI, Strain/Indicator: WP2 UVRA, Metabolic Activation: MOUSE, LIVER, S-9, AROCLOR 1254, Method: STANDARD PLATE",inactive; negative
same,mutagenic call,"Test System: E. COLI, Strain/Indicator: WP2 UVRA, Metabolic Activation: MOUSE, LIVER, S-9, Method: STANDARD PLATE",inactive; negative
same,mutagenic call,"Test System: E. COLI, Strain/Indicator: WP2 UVRA, Metabolic Activation: NONE, Method: STANDARD PLATE",inactive; negative
same,mutagenic call,"Test System: E. COLI, Strain/Indicator: WP2 UVRA, Metabolic Activation: RAT, LIVER, S-9, Method: PREINCUBATION",inactive; negative
same,mutagenic call,"Test System: E. COLI, Strain/Indicator: WP2 UVRA, Metabolic Activation: RAT, LIVER, S-9, Method: STANDARD PLATE",inactive; negative
same,mutagenic call,"Test System: MOUSE LYMPHOMA, Strain/Indicator: L5178Y (TK+/TK-), Metabolic Activation: RAT, LIVER, S-9, AROCLOR 1254, Method: SUSPENSION/PLATE",active; positive
same,mutagenic call,"Test System: UDS RAT HEPATOCYTES, Strain/Indicator: THY INCORP, Metabolic Activation: NONE, Method: LIQUID SCINTILLATION COUNTING",active; positive
same,mutagenic call,"Test System: UDS RODENT HEPATOCYTES, Strain/Indicator: THY INCORP (NON-S-PHASE), Method: AUTORADIOGRAPHY",active; positive
